Laboratory results reported in patent US11530213B2, “Naphthyridinone derivatives and their use in the treatment of arrhythmia” (NOVARTIS AG, priority 2016, dated 2022).

Target: GIRK1/4 (Homo sapiens (Human), UniProt P48544+P48549)
Assay: GIRK1/4 inhibition, Quattro (IonWorks) population patch clamp, inward potassium current in GIRK 1/4 HEK293 stable cells (test assay No. 1)
Format: cell-based
Conditions: percentage of current inhibition normalized to DMSO-only control
Procedure, shortened: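 GIRK1/4-expressing HEK293 cells were recorded by IonWorks Quattro perforated patch (amphotericin B), with inward K+ current measured at 1200-1220 ms during a −120 to 40 mV ramp, before and after compound (50-0.1 µM or 0.5-0.01 µM final, quadruplicate). IC50 came from % current inhibition normalized to DMSO control.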

Sequence of GIRK1/4 (P48549 whole entry): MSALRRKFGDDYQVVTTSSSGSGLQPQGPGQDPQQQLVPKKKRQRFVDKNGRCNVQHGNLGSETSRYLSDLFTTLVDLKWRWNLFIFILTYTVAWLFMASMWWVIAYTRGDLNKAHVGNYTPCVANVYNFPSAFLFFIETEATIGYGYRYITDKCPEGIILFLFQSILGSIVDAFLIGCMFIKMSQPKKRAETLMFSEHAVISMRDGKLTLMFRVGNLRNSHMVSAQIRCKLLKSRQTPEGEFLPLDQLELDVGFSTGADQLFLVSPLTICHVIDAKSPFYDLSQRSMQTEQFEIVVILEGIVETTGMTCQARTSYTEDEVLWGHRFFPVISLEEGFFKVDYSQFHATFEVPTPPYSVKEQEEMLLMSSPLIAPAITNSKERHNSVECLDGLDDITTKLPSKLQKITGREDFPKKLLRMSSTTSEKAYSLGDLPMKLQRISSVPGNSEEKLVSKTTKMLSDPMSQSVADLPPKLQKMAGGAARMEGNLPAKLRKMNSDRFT
Sequence of GIRK1/4 (P48544 whole entry): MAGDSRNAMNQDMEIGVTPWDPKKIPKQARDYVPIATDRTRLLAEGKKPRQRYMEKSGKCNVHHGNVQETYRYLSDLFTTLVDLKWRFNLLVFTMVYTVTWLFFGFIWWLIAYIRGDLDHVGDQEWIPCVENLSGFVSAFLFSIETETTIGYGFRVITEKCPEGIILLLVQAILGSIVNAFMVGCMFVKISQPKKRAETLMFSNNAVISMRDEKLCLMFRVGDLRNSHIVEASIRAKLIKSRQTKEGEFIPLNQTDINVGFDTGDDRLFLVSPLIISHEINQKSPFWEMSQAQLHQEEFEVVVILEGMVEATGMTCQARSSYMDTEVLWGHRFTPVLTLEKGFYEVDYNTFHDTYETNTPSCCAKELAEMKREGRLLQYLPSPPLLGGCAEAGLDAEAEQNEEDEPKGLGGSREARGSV

| IC50 | Compound |
| --- | --- |
| 33 nM | Cc1cc(=O)c2c(OCCOCCOCCOCCO)ncc(Cl)c2n1-c1c(Cl)cc(F)cc1Cl [Example 32, 8-chloro-1-(2,6-dichloro-4-fluorophenyl)-5-(2-(2-(2-(2-hydroxyethoxy)ethoxy)ethoxy)ethoxy)-2-methyl-1,6-naphthyridin-4(1H)-one] |
| 36 nM | O=c1cc(CO)n(-c2c(Cl)cccc2Cl)c2c(Cl)cnc(OCCO)c12 [Example 12, 8-chloro-1-(2,6-dichlorophenyl)-5-(2-hydroxyethoxy)-2-(hydroxymethyl)-1,6-naphthyridin-4(1H)-one] |
| 15 nM | Cc1cc(=O)c2c(OCC(C)(C)O)ncc(Cl)c2n1-c1c(Cl)cccc1Cl [Example 42, 8-chloro-1-(2,6-dichlorophenyl)-5-(2-hydroxy-2-methylpropoxy)-2-methyl-1,6-naphthyridin-4(1H)-one] |
| 120 nM | O=c1cc(CO)n(-c2c(Cl)cccc2Cl)c2c(Cl)cnc(OCC3COC3)c12 [Example 10, 8-chloro-1-(2,6-dichlorophenyl)-2-(hydroxymethyl)-5-(oxetan-3-ylmethoxy)-1,6-naphthyridin-4(1H)-one] |
| 148 nM | Cc1cc(=O)c2c(NCCNS(C)(=O)=O)cncc2n1-c1c(Cl)cc(C#N)cc1Cl [Example 22, N-(2-((1-(2,6-dichloro-4-cyanophenyl)-2-methyl-4-oxo-1,4-dihydro-1,7-naphthyridin-5-yl)amino)ethyl)methanesulfonamide] |
| 34 nM | CCc1cc2c(c(OCC(O)CO)n1)c(=O)cc(C)n2-c1c(Cl)cccc1Cl (centres unmarked) [Example 66, 1-(2,6-Dichlorophenyl)-5-(2,3-dihydroxpropoxy)-7-ethyl-2-methyl-1,6-naphthyridin-4(1H)-one] |
| 73 nM | Cc1cc(=O)c2c(OCC(O)CO)ncc(C3CC3)c2n1-c1c(Cl)cccc1Cl (centres unmarked) [Example 52, 8-cyclopropyl-1-(2,6-dichlorophenyl)-5-(2,3-dihydroxypropoxy)-2-methyl-1,6-naphthyridin-4(1H)-one] |
| 176 nM | Cc1cc(=O)c2c(-n3cncn3)ncc(Cl)c2n1-c1c(Cl)cccc1Cl [Example 71, 8-Chloro-1-(2,6-dichlorophenyl)-2-methyl-5-(1H-1,2,4-triazol-1-yl)-1,6-naphthyridin-4(1H)-one] |
| 32 nM | CC1(C)OCC(COc2ncc(Cl)c3c2c(=O)cc(CO)n3-c2c(Cl)cccc2Cl)O1 (centres unmarked) [Example 57, 8-chloro-1-(2,6-dichlorophenyl)-5-((2,2-dimethyl-1,3-dioxolan-4-yl)methoxy)-2-(hydroxymethyl)-1,6-naphthyridin-4(1H)-one] |
| 365 nM | O=c1cc(CO)n(-c2c(Cl)cccc2Cl)c2c(Cl)cnc(CC(O)CO)c12 (single isomer, unassigned) [Example 80, 8-Chloro-1-(2,6-dichlorophenyl)-5-(2,3-dihydroxypropyl)-2-(hydroxymethyl)-1,6-naphthyridin-4(1H)-one] |
| 54 nM | N#Cc1cccc(Cl)c1-n1c(C2CC2)cc(=O)c2c(OCC(O)CO)ncc(Cl)c21 (centres unmarked) [Example 55, 3-chloro-2-(8-chloro-2-cyclopropyl-5-(2,3-dihydroxypropoxy)-4-oxo-1,6-naphthyridin-1(4H)-yl)benzonitrile] |
